Patent publication US20220324835A1 (Nurix Therapeutics, Inc., priority 2018, published 2022)
Where a name gives a salt, the structure may show the parent alone. Read-outs that look alike come from different tables or passages of the source.

Key:
[1] = tested on: T-cell; experiment: CD25 cell surface staining on T-cells co-stimulated with anti-CD3 and anti-CD28 antibody (Biological Example 2); type: cell-based, human; details: Homo sapiens, T-cell, read-out: CD25 staining Anti-CD3/Anti-CD28 stimulation; for fold induction at 0.3 µM: 0.3 μM Cbl-b inhibitor; for fold induction at 1 µM: 1 μM Cbl-b inhibitor; for fold induction at 4 µM: 4 μM Cbl-b inhibitor
How it was run: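 No assay protocol given; T-cells stimulated with anti-CD3 alone or anti-CD3 plus anti-CD28, with or without Cbl-b inhibitor. Activation read as IL-2 secretion or CD25 surface staining, expressed as fold over baseline from uninhibited cells […].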

[2] = target: Cbl-b (residues 36-427) (Homo sapiens, UniProt Q13191); experiment: Cbl-b binding assay (SPR, Biacore T200); details: 20° C., 1:1 binding model
How it was run: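 Affinities derived from global 1:1 steady-state or kinetic fits of double-referenced, solvent-corrected SPR data, 20 °C, NeutrAvidin-capture chip. Compound series (top 100 or 50 μM, 8–10 points) injected 50 s, 90–180 s dissociation. Asterisked values used 50 mM instead of 100 mM NaCl and 30 nM Src kinase.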

[3] = fold change over baseline, primary human total T-cells
[4] = fold change over baseline (anti-CD3/anti-CD28 stimulated T-cells without inhibitor)

Sequence of Cbl-b (residues 36-427) (Q13191 36-427): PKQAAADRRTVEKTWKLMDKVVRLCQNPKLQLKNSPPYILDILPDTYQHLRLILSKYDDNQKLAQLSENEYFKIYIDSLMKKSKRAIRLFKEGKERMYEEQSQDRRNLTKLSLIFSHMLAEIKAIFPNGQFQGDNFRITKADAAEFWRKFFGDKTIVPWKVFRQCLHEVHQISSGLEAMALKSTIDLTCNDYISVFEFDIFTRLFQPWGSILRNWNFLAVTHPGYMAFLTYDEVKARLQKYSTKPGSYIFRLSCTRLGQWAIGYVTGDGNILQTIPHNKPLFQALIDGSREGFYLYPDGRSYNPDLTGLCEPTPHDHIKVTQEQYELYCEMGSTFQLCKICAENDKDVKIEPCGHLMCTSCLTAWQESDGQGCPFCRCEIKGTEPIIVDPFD

| Structure (SMILES) | fold induction at 0.3 µM [1, 3] | fold induction at 1 µM [1, 3] | fold induction at 4 µM [1, 3] | Kd [2] [nM] | fold induction at 0.3 µM [1, 4] | fold induction at 1 µM [1, 4] |
| --- | --- | --- | --- | --- | --- | --- |
| C[C@H](Cc1nncn1C)c1cccc(NC(=O)c2nc3c(C(F)(F)F)cccc3[nH]2)c1 [Compound 196, N-[3-[(1R)-1-methyl-2-(4-methyl-1,2,4-triazol-3-yl)ethyl]phenyl]-4-(trifluoromethyl)-1H-benzimidazole-2-carboxamide] | 1.01 to 1.3 | 1.51 to 1.75 | > 1.76 | 100 to 300 | – | – |
| C[C@H](Cc1nncn1C)c1cccc(NC(=O)c2cc(C3CC3)cc(C(F)(F)F)n2)c1 [Compound 191, (R)-4-cyclopropyl-N-(3-(1-(4-methyl-4H-1,2,4-triazol-3-yl)propan-2-yl)phenyl)-6-(trifluoromethyl)picolinamide] | 1.31 to 1.5 | 1.51 to 1.75 | 1.51 to 1.75 | < 100 | – | – |
| Cn1cnnc1CC1(c2cccc(N3Cc4c(cccc4C(F)(F)F)C3=O)c2)CC1 [Compound 299, 2-(3-(1-((4-methyl-4H-1,2,4-triazol-3-yl)methyl)cyclopropyl)phenyl)-4-(trifluoromethyl)isoindolin-1-one] | < 1 | 1.01 to 1.3 | 1.01 to 1.3 | 1000 to 3000 | – | – |
| C[C@H](Cc1nncn1C)c1cccc(NC(=O)c2cc(C3CC3)nc(C3CC3)n2)c1 [Compound 193, (R)-2,6-dicyclopropyl-N-(3-(1-(4-methyl-4H-1,2,4-triazol-3-yl)propan-2-yl)phenyl)pyrimidine-4-carboxamide] | 1.01 to 1.3 | 1.51 to 1.75 | 1.51 to 1.75 | < 100 | – | – |
| C[C@H](Cc1nncn1C)c1cccc(NC(=O)c2nc3c(C4CC4)cccc3[nH]2)c1 [Compound 319, 4-cyclopropyl-N-[3-[(1R)-1-methyl-2-(4-methyl-1,2,4-triazol-3-yl)ethyl]phenyl]-1H-benzimidazole-2-carboxamide] | 1.01 to 1.3 | 1.01 to 1.3 | 1.01 to 1.3 | 100 to 300 | – | – |
| Cn1cnnc1CC(C)(C)c1cccc(N2Cc3c(cccc3C(F)(F)F)C2=O)c1 [Compound 300, 2-(3-(2-methyl-1-(4-methyl-4H-1,2,4-triazol-3-yl)propan-2-yl)phenyl)-4-(trifluoromethyl)isoindolin-1-one] | 1.01 to 1.3 | 1.01 to 1.3 | 1.51 to 1.75 | 100 to 300 | – | – |
| C[C@H](Cc1nncn1C)c1cccc(NC(=O)c2cc(O[C@@H]3CC[C@@H](O)C3)ccn2)c1 (relative stereo) [Compound 205, trans-4-(3-hydroxycyclopentyloxy)-N-(3-((R)-1-(4-methyl-4H-1,2,4-triazol-3-yl)propan-2-yl)phenyl)picolinamide] | 1.01 to 1.3 | 1.01 to 1.3 | 1.31 to 1.5 | 100 to 300 | – | – |
| Cn1cnnc1CC1(c2cccc(N3Cc4c(cccc4C(F)(F)F)C3=O)c2)COC1 [Compound 301, 2-[3-[3-[(4-methyl-1,2,4-triazol-3-yl)methyl]oxetan-3-yl]phenyl]-4-(trifluoromethyl)isoindolin-1-one] | 1.01 to 1.3 | 1.01 to 1.3 | 1.31 to 1.5 | 301 to 1000 | – | – |
| C[C@H](Cc1nncn1C)c1cccc(N2Cc3c(cc(C(=O)N4CC[C@H](O)C4)cc3C3CC3)C2=O)c1 [Compound 277, 4-cyclopropyl-6-((S)-3-hydroxypyrrolidine-1-carbonyl)-2-(3-((R)-1-(4-methyl-4H-1,2,4-triazol-3-yl)propan-2-yl)phenyl)isoindolin-1-one] | 1.01 to 1.3 | 1.01 to 1.3 | 1.31 to 1.5 | 100 to 300 | – | – |
| CC(=O)N1CCN(c2ccc3cnc(C(=O)Nc4cccc([C@H](C)Cc5nncn5C)c4)cc3c2)CC1 [Compound 211, (R)-6-(4-acetylpiperazin-1-yl)-N-(3-(1-(4-methyl-4H-1,2,4-triazol-3-yl)propan-2-yl)phenyl)isoquinoline-3-carboxamide 2,2,2-trifluoroacetate] | 1.01 to 1.3 | 1.01 to 1.3 | 1.51 to 1.75 | 100 to 300 | – | – |
| C[C@H](Sc1nncn1C)c1cccc(NC(=O)c2cc3cc(OCC(=O)NCCN)ccc3cn2)c1 [Compound 311, 6-[2-(2-aminoethylamino)-2-oxo-ethoxy]-N-[3-[(1S)-1-[(4-methyl-1,2,4-triazol-3-yl)sulfanyl]ethyl]phenyl]isoquinoline-3-carboxamide hydrochloride] | < 1 | < 1 | 1.01 to 1.3 | 100 to 300 | – | – |
| C[C@H](Sc1nncn1C)c1cccc(NC(=O)c2ccnc(C3CC3)n2)c1 [Compound 76, 2-cyclopropyl-A-[3-[(1S)-1-[(4-methyl-1,2,4-triazol-3-yl)sulfanyl]ethyl]phenyl]pyrimidine-4-carboxamide] | 1.01 to 1.3 | 1.01 to 1.3 | 1.31 to 1.5 | 100 to 300 | – | – |
| Cn1cnnc1[C@@H](F)C1(c2cccc(N3Cc4c(cc(CN5CCC(F)CC5)cc4C(F)(F)F)C3=O)c2)COC1 [Example 670a, (S)-2-(3-(3-(fluoro(4-methyl-4H-1,2,4-triazol-3-yl)methyl)oxetan-3-yl)phenyl)-6-((4-fluoropiperidin-1-yl)methyl)-4-(trifluoromethyl)isoindolin-1-one] | – | – | – | < 100 | 1.51 to 1.75 | 1.51 to 1.75 |
| CC1CCc2c1n[nH]c2C(=O)Nc1cccc([C@H](C)Cc2nncn2C)c1 (stereo partly drawn) [Compound 323, 6-Methyl-N-(3-((R)-1-(4-methyl-4H-1,2,4-triazol-3-yl)propan-2-yl)phenyl)-2,4,5,6-tetrahydrocyclopenta[c]pyrazole-3-carboxamide] | < 1 | < 1 | 1.01 to 1.3 | 100 to 300 | – | – |
| C[C@H](Sc1nncn1C)c1cccc(NC(=O)c2cc(C3CC3)cc(C(F)(F)F)n2)c1 [Compound 67, (S)-4-cyclopropyl-N-(3-(1-((4-methyl-4H-1,2,4-triazol-3-yl)thio)ethyl)phenyl)-6-(trifluoromethyl)picolinamide] | 1.01 to 1.3 | 1.01 to 1.3 | 1.01 to 1.3 | 100 to 300 | – | – |
| C[C@H](Cc1nncn1C)c1cccc(NC(=O)c2cc(C(C)(C)O)cc(C(F)(F)F)n2)c1 [Compound 320, 4-(2-hydroxypropan-2-yl)-N-[3-[(2R)-1-(4-methyl-4H-1,2,4-triazol-3-yl)propan-2-yl]phenyl]-6-(trifluoromethyl)pyridine-2-carboxamide] | 1.01 to 1.3 | 1.01 to 1.3 | 1.01 to 1.3 | 100 to 300 | – | – |
| C[C@H](Sc1nncn1C)c1cccc(NC(=O)c2ccc(C#N)c(C3CC3)n2)c1 [Compound 92, 5-cyano-6-cyclopropyl-N-[3-[(1S)-1-[(4-methyl-1,2,4-triazol-3-yl)sulfanyl]ethyl]phenyl]pyridine-2-carboxamide] | 1.01 to 1.3 | 1.31 to 1.5 | 1.31 to 1.5 | 100 to 300 | – | – |
| CCNc1cc([C@H](C)Cc2nncn2C)cc(N2Cc3c(cccc3C(F)(F)F)C2=O)n1 [Compound 360, (R)-2-(6-(ethylamino)-4-(1-(4-methyl-4H-1,2,4-triazol-3-yl)propan-2-yl)pyridin-2-yl)-4-(trifluoromethyl)isoindolin-1-one] | 1.31 to 1.5 | 1.51 to 1.75 | 1.51 to 1.75 | < 100 | – | – |
| C[C@H](Cc1nncn1C)c1cccc(NC(=O)c2cccc(C(C)(C)C)n2)c1 [Compound 321, (R)-6-(Tert-butyl)-N-(3-(1-(4-methyl-4H-1,2,4-triazol-3-yl)propan-2-yl)phenyl)picolinamide] | 1.01 to 1.3 | 1.01 to 1.3 | 1.01 to 1.3 | 100 to 300 | – | – |
| CC(C)Nc1cc([C@H](C)Cc2nncn2C)cc(N2Cc3c(cccc3C(F)(F)F)C2=O)n1 [Compound 353, 2-{4-[(2R)-1-(4-methyl-4H-1,2,4-triazol-3-yl)propan-2-yl]-6-[(propan-2-yl)amino]pyridin-2-yl}-4-(trifluoromethyl)-2,3-dihydro-1H-isoindol-1-one] | 1.01 to 1.3 | 1.01 to 1.3 | 1.31 to 1.5 | < 100 | – | – |
| Cc1cnnn1C[C@@H](C)c1cccc(NC(=O)c2cccc(C(F)(F)F)n2)c1 [Compound 312a, (S)-N-(3-(1-(5-methyl-1H-1,2,3-triazol-1-yl)propan-2-yl)phenyl)-6-(trifluoromethyl)picolinamide] | < 1 | 1.01 to 1.3 | 1.01 to 1.3 | 301 to 1000 | – | – |
| C[C@H](c1cc2c(c(C(F)(F)F)c1)CN(c1cccc(C3([C@@H](F)c4nncn4C)COC3)c1)C2=O)N1CCC2(CC2)C1 [Example 576, 6-((R)-1-(5-azaspiro[2.4]heptan-5-yl)ethyl)-2-(3-(3-((R)-fluoro(4-methyl-4H-1,2,4-triazol-3-yl)methyl)oxetan-3-yl)phenyl)-4-(trifluoromethyl)isoindolin-1-one] | – | – | – | < 100 | > 1.76 | > 1.76 |
